{"source": "patent US9089572B2", "about": "“Inhibitors of p97” (California Institute of Technology, priority 2008, dated 2015)", "key": {"HTC116 WT": {"tested_on": "HTC116 WT", "assay": "MTT cell growth assay, HTC116 WT", "format": "cell-based", "details": "48 or 72 h, read-out: Cell line inhibition of growth GI50 HTC116 WT", "procedure": "(§1) To probe further the effect of compound 2 and related compounds 1, 3, 5, 6 and 7, various concentrations of these compounds were added to 13 different cell lines and incubated for 48 or 72 h. An MTT assay was then performed to evaluate cell growth and survival."}, "HCT116 p53−/−": {"tested_on": "HCT116 p53−/−", "assay": "MTT cell growth assay, HCT116 p53−/−", "format": "cell-based", "details": "Homo sapiens, HCT-116, 48 or 72 h, read-out: Cell line inhibition of growth GI50 HCT116 p53−/−", "procedure": "as §1"}, "C522A-mp97": {"biological_target": "T1, C522A-mp97 (Mus musculus, UniProt Q01853, C522A)", "T1 construct": "made in house", "T1 sequence (Q01853 whole entry C522A)": "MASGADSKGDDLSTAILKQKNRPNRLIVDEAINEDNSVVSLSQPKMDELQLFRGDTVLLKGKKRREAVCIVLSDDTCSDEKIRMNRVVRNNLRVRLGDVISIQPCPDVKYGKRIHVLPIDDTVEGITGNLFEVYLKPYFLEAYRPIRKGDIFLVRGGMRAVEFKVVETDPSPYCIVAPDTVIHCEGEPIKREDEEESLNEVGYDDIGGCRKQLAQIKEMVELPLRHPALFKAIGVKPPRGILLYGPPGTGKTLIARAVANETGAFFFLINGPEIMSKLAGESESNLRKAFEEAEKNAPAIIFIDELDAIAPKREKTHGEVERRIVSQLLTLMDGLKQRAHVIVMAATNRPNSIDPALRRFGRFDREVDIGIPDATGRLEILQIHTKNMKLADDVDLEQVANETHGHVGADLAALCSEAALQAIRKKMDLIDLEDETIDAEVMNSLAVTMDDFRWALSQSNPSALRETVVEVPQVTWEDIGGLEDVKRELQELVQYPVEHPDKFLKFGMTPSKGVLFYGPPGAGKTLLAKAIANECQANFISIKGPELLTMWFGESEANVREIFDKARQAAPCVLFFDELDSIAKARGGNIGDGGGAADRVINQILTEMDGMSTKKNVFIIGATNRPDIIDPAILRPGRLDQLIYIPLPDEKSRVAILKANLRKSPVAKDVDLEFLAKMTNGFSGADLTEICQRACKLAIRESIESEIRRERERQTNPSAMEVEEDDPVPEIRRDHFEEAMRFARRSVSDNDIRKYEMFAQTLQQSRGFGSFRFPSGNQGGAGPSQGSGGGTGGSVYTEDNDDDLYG", "assay": "In vitro ATP hydrolysis, C522A-mp97 mutant", "format": "biochemical, murine", "procedure": "(§2) Compounds were tested for their ability to inhibit the ATPase activity of purified wild type murine p97 and T532C-Cdc48, a mutant of yeast Cdc48 in which the residue analogous to cysteine 522, threonine 532, was converted to cysteine.\n(§3) To determine whether cysteine 522 is necessary for inhibition of p97 by compound 2, a mutant of p97 was constructed in which cysteine 522 was converted to either alanine (C522A-mp97) or threonine (C522T-mp97). The IC50 values of compound 2 were measured the against various enzymes during a 20-minute preincubation (see Table 2). Mutation of cysteine 522 in p97 to either alanine or threonine decreased sensitivity to compound 2 by greater than 100-fold. On the other hand, yeast Cdc48, which normally is quite resistant to compound 2, became nearly 30-fold more sensitive to the compound upon introduction of a cysteine in place of threonine 532."}, "[1]": {"tested_on": "HEK293 cells that stably expressed TCR-GFP", "assay": "Accumulation of ERAD reporter TCR-alpha-GFP", "format": "cell-based", "details": "2 h at 37° C., fluorescence microscopy", "procedure": "Since p97 has a well-established role in ERAD, it was also determined whether compound 2 affects the accumulation of an ERAD-reporter, TCR-alpha-GFP. HEK293 cells that stably expressed TCR-GFP were treated with MG132 (see FIG. 19), compound 1 or compound 2 (FIG. 20) at the indicated concentrations for 2 h at 37° C. prior to being imaged by fluorescence microscopy to determine TCR-GFP accumulation. […] It was thus concluded that compound 2 inhibits p97 in cells, resulting in the accumulation of both soluble and insoluble high molecular weight ubiquitin conjugates and UPS substrates whose degradation depends upon p97.\nHEK293 cells that stably expressed TCR-GFP were treated with the Velcade (FIG. 30) or compound 8 (FIG. 31) at the indicated concentrations for 2 h at 37° C. prior to being imaged by fluorescence microscopy to quantify TCR-GFP accumulation."}, "HeLa": {"tested_on": "HeLa", "assay": "MTT cell growth assay, HeLa", "format": "cell-based", "details": "Homo sapiens, 48 or 72 h, read-out: Cell line inhibition of growth GI50 HeLa", "procedure": "as §1"}, "Human 19S ATPase": {"biological_target": "Human 19S ATPase", "sequence (P17980 whole entry)": "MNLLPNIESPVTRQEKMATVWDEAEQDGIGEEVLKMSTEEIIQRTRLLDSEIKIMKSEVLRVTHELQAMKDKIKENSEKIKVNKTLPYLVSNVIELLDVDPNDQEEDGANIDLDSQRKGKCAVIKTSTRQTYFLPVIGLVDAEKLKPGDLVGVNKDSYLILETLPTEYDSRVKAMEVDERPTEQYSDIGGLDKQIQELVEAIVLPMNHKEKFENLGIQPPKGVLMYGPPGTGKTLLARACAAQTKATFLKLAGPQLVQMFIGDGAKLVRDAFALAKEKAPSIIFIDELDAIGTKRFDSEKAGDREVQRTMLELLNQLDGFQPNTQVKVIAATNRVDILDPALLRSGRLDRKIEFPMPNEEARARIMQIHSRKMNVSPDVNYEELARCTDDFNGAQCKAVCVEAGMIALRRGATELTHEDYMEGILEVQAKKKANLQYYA", "sequence (P62333 whole entry, further chain)": "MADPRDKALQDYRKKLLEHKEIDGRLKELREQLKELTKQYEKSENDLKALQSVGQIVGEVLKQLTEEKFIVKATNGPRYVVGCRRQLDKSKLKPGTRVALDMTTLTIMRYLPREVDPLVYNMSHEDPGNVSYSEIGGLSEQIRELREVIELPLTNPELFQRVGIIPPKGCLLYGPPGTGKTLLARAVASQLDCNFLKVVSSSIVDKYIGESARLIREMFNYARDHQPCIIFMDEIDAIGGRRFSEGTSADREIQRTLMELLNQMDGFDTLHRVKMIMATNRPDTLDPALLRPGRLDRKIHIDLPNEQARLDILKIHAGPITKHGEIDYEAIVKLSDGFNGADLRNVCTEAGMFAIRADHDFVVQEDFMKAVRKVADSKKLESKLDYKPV", "sequence (P62195 2-406, further chain)": "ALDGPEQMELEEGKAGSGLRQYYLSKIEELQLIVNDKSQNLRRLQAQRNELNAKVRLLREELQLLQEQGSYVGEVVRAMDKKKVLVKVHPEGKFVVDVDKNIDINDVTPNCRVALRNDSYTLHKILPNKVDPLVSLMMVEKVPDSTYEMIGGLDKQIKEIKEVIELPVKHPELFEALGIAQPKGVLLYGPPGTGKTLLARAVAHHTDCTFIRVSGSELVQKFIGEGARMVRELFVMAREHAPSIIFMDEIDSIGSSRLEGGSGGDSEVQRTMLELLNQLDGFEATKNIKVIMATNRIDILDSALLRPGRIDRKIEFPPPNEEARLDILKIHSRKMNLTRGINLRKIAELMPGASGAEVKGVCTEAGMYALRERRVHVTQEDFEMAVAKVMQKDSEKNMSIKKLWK", "sequence (P35998 2-433, further chain)": "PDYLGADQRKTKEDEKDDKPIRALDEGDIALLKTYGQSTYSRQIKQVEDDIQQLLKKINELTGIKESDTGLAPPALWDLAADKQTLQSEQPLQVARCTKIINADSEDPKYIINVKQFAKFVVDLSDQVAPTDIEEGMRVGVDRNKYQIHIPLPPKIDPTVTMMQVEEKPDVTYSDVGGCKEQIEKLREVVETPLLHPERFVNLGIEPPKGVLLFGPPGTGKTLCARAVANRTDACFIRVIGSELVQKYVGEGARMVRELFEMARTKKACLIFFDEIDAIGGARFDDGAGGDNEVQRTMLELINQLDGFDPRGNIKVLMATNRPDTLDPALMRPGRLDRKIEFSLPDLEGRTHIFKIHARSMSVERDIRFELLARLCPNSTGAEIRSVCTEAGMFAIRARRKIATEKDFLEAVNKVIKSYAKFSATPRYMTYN", "sequence (P62191 2-440, further chain)": "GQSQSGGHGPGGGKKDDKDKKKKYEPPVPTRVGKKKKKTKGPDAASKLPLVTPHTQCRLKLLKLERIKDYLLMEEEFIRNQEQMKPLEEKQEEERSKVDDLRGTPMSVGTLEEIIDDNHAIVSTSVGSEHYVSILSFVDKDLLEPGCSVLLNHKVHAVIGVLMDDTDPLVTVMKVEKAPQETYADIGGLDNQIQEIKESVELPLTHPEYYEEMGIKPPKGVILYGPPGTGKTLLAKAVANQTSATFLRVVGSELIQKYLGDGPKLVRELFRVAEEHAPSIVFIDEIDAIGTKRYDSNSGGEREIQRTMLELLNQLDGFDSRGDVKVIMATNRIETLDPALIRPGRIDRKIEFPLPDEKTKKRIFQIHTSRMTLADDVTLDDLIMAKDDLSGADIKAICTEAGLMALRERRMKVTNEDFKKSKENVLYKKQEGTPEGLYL", "sequence (P43686 whole entry, further chain)": "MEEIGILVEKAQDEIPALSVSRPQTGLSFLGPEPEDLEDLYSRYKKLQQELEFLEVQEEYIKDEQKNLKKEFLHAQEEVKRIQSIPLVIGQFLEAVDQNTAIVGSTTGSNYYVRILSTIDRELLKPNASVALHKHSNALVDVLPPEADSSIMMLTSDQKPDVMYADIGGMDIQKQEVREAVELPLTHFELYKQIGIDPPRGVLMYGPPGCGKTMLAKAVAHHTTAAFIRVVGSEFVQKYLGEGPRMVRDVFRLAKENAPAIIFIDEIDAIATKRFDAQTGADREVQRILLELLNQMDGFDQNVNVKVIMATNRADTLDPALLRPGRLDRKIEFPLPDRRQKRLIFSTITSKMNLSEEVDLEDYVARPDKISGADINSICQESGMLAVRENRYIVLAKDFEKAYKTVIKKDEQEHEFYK", "assay": "In vitro ATP hydrolysis, 19S ATPase of the 26S proteasome", "format": "biochemical", "details": "20-minute preincubation", "procedure": "as §3\nTo further address the specificity of inhibition by compound 2, its activity against two other AAA ATPases, NSF and the 26S proteasome, was assayed. Although NSF is known to be sensitive to thiol-reactive agents, it was more than 100-fold less sensitive to compound 2 than p97 (Table 2). […] The results with NSF and the 26S proteasome are noteworthy because both the active D1 domain of NSF and the Rpt3 subunit of the 26S proteasome have a cysteine in the position analogous to cysteine 522 of p97 (FIG. 3)."}, "MRC5-WT": {"tested_on": "MRC5-WT", "assay": "CellTiter-Glo growth inhibition, parental MRC5 cells", "format": "cell-based", "details": "Homo sapiens, 48 h at 37° C., read-out: Cell line inhibition of growth GI50 MRC5-WT"}, "293": {"tested_on": "293", "assay": "MTT cell growth assay, 293", "format": "cell-based", "details": "Homo sapiens, HEK293, 48 or 72 h, read-out: Cell line inhibition of growth GI50 293", "procedure": "as §1"}, "MRC5-SV40": {"tested_on": "MRC5-SV40", "assay": "CellTiter-Glo growth inhibition, MRC5 cells engineered to express SV40", "format": "cell-based"}, "MCF7": {"tested_on": "MCF7", "assay": "MTT cell growth assay, MCF7", "format": "cell-based", "details": "Homo sapiens, 48 or 72 h, read-out: Cell line inhibition of growth GI50 MCF7", "procedure": "as §1"}, "[2]": {"tested_on": "HeLa cell line that stably expresses UbG76V-GFP", "assay": "Accumulation of UbG76V-GFP in HeLa cells (fluorescence microscopy)", "format": "cell-based", "procedure": "As a control, the same cells were treated with the proteasome inhibitor MG132. In the latter set of experiments, a HeLa cell line that stably expresses UbG76V-GFP was transfected with either wild type (WT), D1 mutant (E305Q), D2 mutant (E578Q) or E305Q, E578Q double mutant (QQ) murine 97-pcDNA4.1 plasmid (0.05 μg/100 μL) in a 96-well plate. After 23 h, the intensity of UbG76V-GFP signal was measured on a Molecular Devices ImageXpress automated fluorescence microscope. […] The direct accumulation of Ub-G76V-GFP caused by compound 2 at 25 μM is 4-fold less than that caused by MG132 at 2 μM. This is likely due to the fact that only fully folded Ub-G76V-GFP should require p97 for degradation by the proteasome.\nAs a second test of whether compound 8 can inhibit p97 in vivo, it was evaluated whether it can cause accumulation of the UbG76V-GFP reporter. A HeLa cell line that stably expresses UbG76V-GFP was treated with compound 8 for 1 h at 37° C., and was then evaluated by fluorescence microscopy. As a control, the same cells were treated with the proteasome inhibitor MG132. […] The level of GFP fluorescence was quantified in cells treated with compound 8 at different doses and for different periods of time (FIG. 28)."}, "wild type murine p97": {"biological_target": "wild type murine p97 (Mus musculus, UniProt Q01853)", "sequence (Q01853 whole entry)": "as the sequence (Q01853 whole entry C522A) above, with A522C counted along it", "assay": "In vitro ATP hydrolysis (malachite green ATPase assay), wild type murine p97", "format": "biochemical", "procedure": "as §2"}, "cysteine 522 of p97": {"biological_target": "cysteine 522 of p97 (Mus musculus, UniProt Q01853)", "sequence (Q01853 whole entry)": "as the sequence (Q01853 whole entry C522A) above, with A522C counted along it", "assay": "Tandem mass spectrometry of tryptic peptides of inhibited p97", "format": "binding", "details": "trypsin digest, HPLC", "procedure": "To determine if inhibition by compound 2 requires a reactive thiol, the experiment was repeated with p97 except that various nucelophiles were included during the preincubation. […] To evaluate whether compound 2 modifies cysteine 522, inhibited p97 was digested with trypsin and peptides were fractionated by HPLC and analyzed by tandem mass spectrometry."}, "Yeast Cdc48": {"biological_target": "Yeast Cdc48 (Saccharomyces cerevisiae, UniProt P25694)", "sequence (P25694 whole entry)": "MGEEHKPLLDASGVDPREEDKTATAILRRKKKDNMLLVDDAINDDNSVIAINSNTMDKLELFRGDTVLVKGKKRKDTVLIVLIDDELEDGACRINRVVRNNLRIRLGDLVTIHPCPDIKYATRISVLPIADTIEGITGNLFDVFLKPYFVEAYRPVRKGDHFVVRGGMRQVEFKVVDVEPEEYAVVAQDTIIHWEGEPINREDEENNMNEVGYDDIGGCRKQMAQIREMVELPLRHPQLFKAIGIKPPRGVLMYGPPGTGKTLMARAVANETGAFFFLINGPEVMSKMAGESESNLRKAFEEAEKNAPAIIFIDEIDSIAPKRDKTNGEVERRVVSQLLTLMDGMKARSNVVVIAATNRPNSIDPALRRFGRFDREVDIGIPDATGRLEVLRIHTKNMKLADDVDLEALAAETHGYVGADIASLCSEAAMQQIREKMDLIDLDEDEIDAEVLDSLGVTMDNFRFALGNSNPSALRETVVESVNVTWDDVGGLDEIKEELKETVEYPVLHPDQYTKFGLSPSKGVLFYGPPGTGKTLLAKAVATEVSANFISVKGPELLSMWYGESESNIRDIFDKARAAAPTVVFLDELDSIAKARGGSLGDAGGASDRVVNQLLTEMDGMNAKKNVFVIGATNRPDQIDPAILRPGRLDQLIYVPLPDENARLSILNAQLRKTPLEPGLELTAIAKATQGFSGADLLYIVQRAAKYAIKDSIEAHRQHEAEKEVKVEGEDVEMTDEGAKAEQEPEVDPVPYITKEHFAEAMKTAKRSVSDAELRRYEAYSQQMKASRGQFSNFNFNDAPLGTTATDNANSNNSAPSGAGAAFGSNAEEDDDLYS", "assay": "In vitro ATP hydrolysis, yeast Cdc48", "format": "biochemical", "procedure": "as §2, §3"}}, "note": "Values joined by “and” are separate entries in the source; they are usually repeats but may differ in a detail not shown here. Equal entries are not always repeated."}
{"smiles": "C=CC(=O)Nc1ncnc2c1c(-c1ccccc1)nn2C(C)(C)C", "note": "[Compound 2]", "values": [{"measurement": "GI50", "setting": "HTC116 WT", "value": "2.4 ± 1.2", "unit": "µM"}, {"measurement": "GI50", "setting": "HCT116 p53−/−", "value": "2.5 ± 1.5", "unit": "µM"}, {"measurement": "IC50", "setting": "C522A-mp97; 20-minute preincubation", "value": "110 ± 33", "unit": "µM"}, {"measurement": "decrease in sensitivity on mutation of cysteine 522 in p97 to alanine or threonine", "setting": "C522A-mp97; C522A or C522T vs wild type p97", "value": "greater than 100 fold"}, {"measurement": "accumulation of TCR-alpha-GFP", "setting": "[1]", "value": "substantial TCR-alpha-GFP accumulation"}, {"measurement": "GI50", "setting": "HeLa", "value": "0.4 ± 0.3", "unit": "µM"}, {"measurement": "IC50", "setting": "Human 19S ATPase", "value": 75, "unit": "µM"}, {"measurement": "GI50", "setting": "MRC5-WT", "value": "17 ± 10", "unit": "µM"}, {"measurement": "GI50", "setting": "293", "value": "5.1 ± 2.3", "unit": "µM"}, {"measurement": "GI50", "setting": "MRC5-SV40; Homo sapiens, MRC5, 48 h at 37° C., CellTiter-Glo, read-out: Cell line inhibition of growth GI50 MRC5-SV40", "value": "7.3 ± 5.5", "unit": "µM"}, {"measurement": "greater sensitivity of SV40-transformed cells than WT cell line", "setting": "MRC5-SV40; MRC5-SV40 vs MRC5-WT GI50", "value": 2, "unit": "fold"}, {"measurement": "GI50", "setting": "MCF7", "value": "0.5 ± 0.1", "unit": "µM"}, {"measurement": "accumulation of UbG76V-GFP", "setting": "[2]; 4 hours at 37° C., fluorescence microscopy", "value": "caused accumulation of UbG76V-GFP"}, {"measurement": "direct accumulation of Ub-G76V-GFP, less than that caused by MG132 at 2 μM", "setting": "[2]; compound at 25 μM vs MG132 at 2 μM", "value": 4, "unit": "fold"}, {"measurement": "IC50", "setting": "wild type murine p97; 200 nM p97, 20 min preincubation at 23° C., malachite green, read-out: In vitro ATP Hydrolysis Activity IC50 WT-mP97", "value": "0.6 µM and 0.62 µM"}, {"measurement": "inhibitory effect on p97 with nucleophiles in the preincubation", "setting": "wild type murine p97; cysteine or dithiothreitol in the preincubation buffer", "value": "counteracted"}, {"measurement": "covalent modification of cysteine 522", "setting": "cysteine 522 of p97", "value": "formed a covalent adduct on cysteine 522"}, {"measurement": "IC50", "setting": "Yeast Cdc48", "value": "376 ± 95", "unit": "µM"}]}
